Measured values reported in patent publication US6472433B2, “Method for treatment of inflammation with R-NSAIDS” (Loma Linda University Medical Center, priority 1999, dated 2002).

Tests used:
[1] = system: carrageenan-induced paw edema; experiment: Carrageenan paw test (hind paw edema, plethysmometer); assay type: in vivo, male Long Evans derived rats; details: for Result (Reduction of Edema): 1 h before carrageenan, paw volume 3 h after injection
Protocol: In this test, the test compound is administered to several rats. Thereafter, a paw on each rat is injected with a solution of carrageenan in order to induce edema in the paw as a measure of inflammation. After three hours, the volume of the paw is measured using a plethysmometer. Reduction of edema by 30% or more, as compared to a control group which was not given the test compound, is considered indicative of anti-inflammatory activity.
This very pure form of R-flurbiprofen, was tested for anti-inflammatory activity by the carrageenan paw test. Seven groups of eight male Long Evans derived rats weighing 150±20 grams were fasted overnight. One hour after oral administration a suspension of the test substance in 2% Tween 80, as documented in Table 1 below, the right hind paw of each rat was injected intraplantarly with 0.1 ml of a 1% suspension of carrageenan. Three hours after injection, the hind paw volume was measured using a plethysmometer and recorded.

[2] = humans; cited from earlier work
[3] = system: carrageenan-induced paw edema; details: cited from earlier work; for reduction of edema: dosage of 0.3 mg/kg, enantiomeric purity not disclosed

Structure (SMILES): CC(=O)Oc1ccccc1C(=O)O [Aspirin, reference compound]
- Anti-Inflammatory Activity ([1]; 150 mg/kg oral): Yes (Reduction of edema by 30% or more, as compared to a control group which was not given the test compound, is considered indicative of anti-inflammatory activity)
- Result (Reduction of Edema) ([1]; 150 mg/kg oral): 42%

Structure (SMILES): CCc1cccc2c3c([nH]c12)[C@@](CC)(CC(=O)O)OCC3 [R-etodolac]
- S-enantiomer in circulation at steady state (formed by inversion of the R-enantiomer) [2]: 0%

Structure (SMILES): O=C(c1ccccc1)c1ccc2n1CC[C@H]2C(=O)O [R-ketorolac]
- S-enantiomer in circulation at steady state (formed by inversion of the R-enantiomer) [2]: 6%

Structure (SMILES): C[C@@H](C(=O)O)c1ccc(-c2ccccc2)c(F)c1 [R-Flurbiprofen, R-flurbiprofen]
- S-enantiomer in circulation at steady state (formed by inversion of the R-enantiomer) [2]: 1.5%
- reduction of edema [3]: 18%
- reduction in inflammation ([3]; highest dose, 2.5 mg/kg (not at 0.1, 0.3, 1 mg/kg)): statistically significant reduction in inflammation
- Anti-Inflammatory Activity ([1]; 5 mg/kg oral): Yes (Reduction of edema by 30% or more, as compared to a control group which was not given the test compound, is considered indicative of anti-inflammatory activity)
- Result (Reduction of Edema) ([1]; 5 mg/kg oral): 30%
- Anti-Inflammatory Activity ([1]; 10 mg/kg oral): Yes (Reduction of edema by 30% or more, as compared to a control group which was not given the test compound, is considered indicative of anti-inflammatory activity)
- Result (Reduction of Edema) ([1]; 10 mg/kg oral): 41%
- Anti-Inflammatory Activity ([1]; 20 mg/kg oral): Yes (Reduction of edema by 30% or more, as compared to a control group which was not given the test compound, is considered indicative of anti-inflammatory activity)
- Result (Reduction of Edema) ([1]; 20 mg/kg oral): 47%
- Anti-Inflammatory Activity ([1]; 40 mg/kg oral): Yes (Reduction of edema by 30% or more, as compared to a control group which was not given the test compound, is considered indicative of anti-inflammatory activity)
- Result (Reduction of Edema) ([1]; 40 mg/kg oral): 51%

Structure (SMILES): C[C@H](C(=O)O)c1ccc(-c2ccccc2)c(F)c1 [S-flurbiprofen, reference compound]
- reduction of edema [3]: 64%
